Experimental data published in US20060167109A1, “Methods of reducing rhinovirus contagion and related compositions” (priority 2002, published 2006).

Assays:
Experiment in all cases: HRV cytopathic effect assay
Format in all cases: cell-based
Settings in all cases: Human rhinovirus sp.
HRV serotype 81 = system: HRV serotype 81
Experimental: (§1) For sensitivity testing to pleconaril, the appropriate cells were seeded into 96 well plates at a concentration of 4×10^4/well. After an overnight incubation at 37° C., the medium was removed and the cells were infected with 150 μL of a dilution of virus previously titrated to give ≧85% lysis of the monolayer after 3 days of incubation. The plates were incubated for 1 hour at the appropriate temperature and then overlaid with 50 μL of medium containing serial 2-fold dilutions of pleconaril in 2% DMSO. The final DMSO concentration in the assay was always 0.5%. No virus and no pleconaril controls were included on each plate. All drug concentrations were run in quadruplicate. The plates were then incubated for 3 days at the appropriate temperature followed by processing as described above.

HRV serotype 97 = system: HRV serotype 97
Experimental: as §1

HRV serotype 11 = system: HRV serotype 11
Experimental: as §1

HRV serotype 26 = system: HRV serotype 26
Experimental: as §1

HRV serotype 42 = system: HRV serotype 42
Experimental: as §1

HRV serotype 15 = system: HRV serotype 15
Experimental: as §1

HRV serotype 52 = system: HRV serotype 52
Experimental: as §1

HRV serotype 30 = system: HRV serotype 30
Experimental: as §1

HRV serotype 63 = system: HRV serotype 63
Experimental: as §1

HRV serotype 77 = system: HRV serotype 77
Experimental: as §1

HRV serotype 31 = system: HRV serotype 31
Experimental: as §1

HRV serotype 20 = system: HRV serotype 20
Experimental: as §1

HRV serotype 44 = system: HRV serotype 44
Experimental: as §1

HRV serotype 38 = system: HRV serotype 38
Experimental: as §1

HRV serotype 75 = system: HRV serotype 75
Experimental: as §1

HRV serotype 43 = system: HRV serotype 43
Experimental: as §1

HRV serotype 71 = system: HRV serotype 71
Experimental: as §1

HRV serotype 74 = system: HRV serotype 74
Experimental: as §1

HRV serotype 55 = system: HRV serotype 55
Experimental: as §1

HRV serotype 1A = system: HRV serotype 1A
Experimental: as §1

HRV serotype 66 = system: HRV serotype 66
Experimental: as §1

HRV serotype 7 = system: HRV serotype 7
Experimental: as §1

HRV serotype 53 = system: HRV serotype 53
Experimental: as §1

HRV serotype 21 = system: HRV serotype 21
Experimental: as §1

HRV serotype 41 = system: HRV serotype 41
Experimental: as §1

HRV serotype 5 = system: HRV serotype 5
Experimental: as §1

HRV serotype 72 = system: HRV serotype 72
Experimental: as §1

HRV serotype 45 = system: HRV serotype 45
Experimental: as §1

HRV serotype 100 = system: HRV serotype 100
Experimental: as §1

HRV serotype 13 = system: HRV serotype 13
Experimental: as §1

HRV serotype 9 = system: HRV serotype 9
Experimental: as §1

HRV serotype 95 = system: HRV serotype 95
Experimental: as §1

HRV serotype 82 = system: HRV serotype 82
Experimental: as §1

HRV serotype 58 = system: HRV serotype 58
Experimental: as §1

HRV serotype 3 = system: HRV serotype 3
Experimental: as §1

HRV serotype 1B = system: HRV serotype 1B
Experimental: as §1

HRV serotype 6 = system: HRV serotype 6
Experimental: as §1

HRV serotype 16 = system: HRV serotype 16
Experimental: as §1

HRV serotype 80 = system: HRV serotype 80
Experimental: as §1

HRV serotype 8 = system: HRV serotype 8
Experimental: as §1

HRV serotype 61 = system: HRV serotype 61
Experimental: as §1

HRV serotype 48 = system: HRV serotype 48
Experimental: as §1

HRV serotype 2 = system: HRV serotype 2
Experimental: as §1

HRV serotype 68 = system: HRV serotype 68
Experimental: as §1

In the case of `Cc1cc(CCCOc2c(C)cc(-c3noc(C(F)(F)F)n3)cc2C)on1` [pleconaril, 3-[3,5-dimethyl-4-[3-(3-methyl-5-isoxazolyl)propoxy]phenyl]-5-(trifluoromethyl)-1,2,4-oxadiazole], the IC50 (HRV serotype 81) is reported as 300 ± 70 nM, the IC50 (HRV serotype 97) is reported as > 12500 nM and the IC50 (HRV serotype 11) is reported as 150 ± 40 nM. For the same compound, the IC50 (HRV serotype 26) was 1600 ± 600 nM, the IC50 (HRV serotype 42) was > 12500 nM and the IC50 (HRV serotype 15) was 590 ± 290 nM. It also gave an IC50 (HRV serotype 52) of 2490 ± 1210 nM, an IC50 (HRV serotype 30) of 230 ± 80 nM and an IC50 (HRV serotype 63) of 160 ± 80 nM. The IC50 (HRV serotype 77) was 550 ± 290 nM, the IC50 (HRV serotype 31) was 130 ± 70 nM and the IC50 (HRV serotype 20) was 60 nM. For the same compound, the IC50 (HRV serotype 44) was 110 ± 70 nM, the IC50 (HRV serotype 38) was 100 ± 40 nM and the IC50 (HRV serotype 75) was 110 ± 60 nM. For the same compound, the IC50 (HRV serotype 43) was 230 ± 110 nM, the IC50 (HRV serotype 71) was 20 ± 10 nM and the IC50 (HRV serotype 74) was 30 nM. The IC50 (HRV serotype 55) was 20 ± 20 nM, the IC50 (HRV serotype 1A; HRV1A, Table 2, mean of at least two independent determinations) was 430 ± 170 nM and the IC50 (HRV serotype 1A; serotype 1A) was 430 ± 170 nM. It also gave an IC50 (HRV serotype 66) of 110 ± 70 nM, an IC50 (HRV serotype 7) of 50 ± 10 nM and an IC50 (HRV serotype 53) of 280 ± 60 nM. For the same compound, the IC50 (HRV serotype 21) was 40 ± 10 nM, the IC50 (HRV serotype 41) was 1750 ± 1490 nM and the IC50 (HRV serotype 5) was > 12500 nM. For the same compound, the IC50 (HRV serotype 72) was 940 ± 300 nM, the IC50 (HRV serotype 45) was 4300 ± 1830 nM and the IC50 (HRV serotype 100) was 30 ± 10 nM. It also gave an IC50 (HRV serotype 13) of 580 ± 130 nM, an IC50 (HRV serotype 9) of 220 ± 80 nM and an IC50 (HRV serotype 95) of 810 ± 510 nM. It also gave an IC50 (HRV serotype 82) of 220 ± 190 nM, an IC50 (HRV serotype 58) of 40 ± 30 nM and an IC50 (HRV serotype 3; HRV3, Table 2, mean of at least two independent determinations) of 90 ± 40 nM. The IC50 (HRV serotype 3; serotype 3) was 90 ± 40 nM, the IC50 (HRV serotype 1B) was 160 ± 30 nM and the IC50 (HRV serotype 6) was 60 ± 20 nM. It also gave an IC50 (HRV serotype 16) of 570 ± 190 nM, an IC50 (HRV serotype 80) of 170 ± 30 nM and an IC50 (HRV serotype 8) of 3420 ± 2700 nM. For the same compound, the IC50 (HRV serotype 61) was 210 ± 80 nM, the IC50 (HRV serotype 48) was 1800 ± 630 nM and the IC50 (HRV serotype 2; HRV2, Table 2, mean of at least two independent determinations) was 30 ± 30 nM. For the same compound, the IC50 (HRV serotype 2; serotype 2) was 30 ± 30 nM and the IC50 (HRV serotype 68) was 30 ± 20 nM.
